US10076504B2, “Glucagon antagonists” (Ligand Pharmaceuticals, Inc., priority 2014, dated 2018)
“Also recorded” adds a separate entry of the source. Read-outs that look alike come from different tables or passages of the source.

Tests used:
[1] = Single ascending dose study, pharmacokinetics; format: in vivo, human; conditions: for AUC(0-inf) / Cmax / Tmax / half-life: human, plasma, po; for time to peak plasma concentrations: post dose
Experimental: Oral doses of IIIa were administered to normal healthy volunteers (NHV) and subjects with type 2 diabetes mellitus (T2DM). A single center, randomized, double-blind, placebo-controlled single ascending dose study was done in both NHV (n=48) and T2DM subjects (n=8). Dose escalation only occurred after review of safety and tolerability data from previous dose levels (n=8/cohort; 2-placebo & 6-IIIa). Dosing of the T2DM cohort was initiated only after the equivalent dose had been administered to NHV and safety data had been reviewed. All subjects were administered IIIa in the morning after an overnight fast with the exception of the NHV in the 40 mg cohort. NHV subjects in the 40 mg cohort initially received IIIa in a fasted state. Following a 3 week washout period, IIIa was readministered after breakfast at 40 mg to determine the effects of food consumption on pharmacokinetics.
This was a single center, randomized, double-blind, placebo-controlled single ascending dose study in both normal healthy volunteers (NHV) (n=48) and subjects with type 2 diabetes mellitus (T2DM) (n=8). All subjects were administered Formula IIIa as a solution formulated with Captisol® after an overnight fast with the exception of the NHV in the 40 mg cohort. The NHV 40 mg cohort initially received Formula IIIa in a fasted state. Following a washout period, subjects received 40 mg Formula IIIa after breakfast to explore the effects of food consumption on pharmacokinetics.
Plasma levels of Formula IIIa were measured by validated LC-MS/MS method. Formula IIIa was well absorbed after oral administration with peak plasma concentrations reached approximately 5-8 hours post dose. Consistent with preclinical predictions, clearance was slow and Formula IIIa was not detected in the urine.

[2] = Liver microsome incubation, statement for all species; format: in vitro ADME; conditions: predicted clearance well below hepatic blood flow
Experimental: (§1) The compound of Formula IIIa (below) was incubated for 60 minutes at 37 C with mouse, rat, dog, monkey, and human liver microsomes.
(§2) Concentrations of IIIa were measured at multiple time points by LC-MS/MS. IIIa was stable with predicted clearance well below hepatic blood flow in all species.

[3] = Liver microsome incubation; format: in vitro ADME, mouse
Experimental: as §1, §2

[4] = human subjects, oral administration
[5] = 40 mg, Diabetic, 40 mg oral, Fasted
[6] = 40 mg, Normal healthy volunteer, 40 mg oral, Fasted
[7] = 40 mg, Normal healthy volunteer, 40 mg oral, Fed

pharmacokinetics in healthy volunteers vs diabetic subjects ([1]; 40 mg): comparable | effect of food on pharmacokinetics ([1]; 40 mg, healthy volunteers, fasted vs after breakfast): comparable | plasma exposure versus dose ([1]; 2 to 480 mg oral, human subjects): Dose dependent increases | CL/F ([1]; Diabetic, 40 mg oral, Fasted): 1.32 L/h | CL/F ([1]; Normal healthy volunteer, 40 mg oral, Fasted): 1.33 L/h | CL/F ([1]; Normal healthy volunteer, 40 mg oral, Fed): 1.67 L/h | absorption after oral administration ([1]; human subjects): well absorbed | clearance [1, 4]: slow | detection in the urine [1, 4]: not detected | AUC(0-inf) [1, 5]: 33700 ng·h/mL | Cmax [1, 5]: 1420 ng/mL | Tmax [1, 5]: 7.5 h | half-life ([1]; 40 mg, Diabetic, 40 mg oral, Fasted, read-out: t1/2 (converted)): 58.5 h | AUC(0-inf) [1, 6]: 32700 ng·h/mL | Cmax [1, 6]: 893 ng/mL | Tmax [1, 6]: 8.4 h | half-life ([1]; 40 mg, Normal healthy volunteer, 40 mg oral, Fasted, read-out: t1/2 (converted)): 51.6 h | AUC(0-inf) [1, 7]: 25200 ng·h/mL | Cmax [1, 7]: 779 ng/mL | Tmax [1, 7]: 7.2 h | half-life ([1]; 40 mg, Normal healthy volunteer, 40 mg oral, Fed, read-out: t1/2 (converted)): 53.8 h | half-life ([1]; oral administration, NH and T2DM subjects, read-out: elimination half-life (converted)): ~50 h | time to peak plasma concentrations ([1]; oral administration, human subjects): 5 to 8 h | time to peak plasma concentrations ([1]; oral administration, human subjects, listed as Formula IIIa): 5 to 8 h | stability in liver microsomes [2]: stable | 1st-order kinetic rate constant ([3]; Mouse liver microsomes, 60 minutes at 37 C): 0.0017 min⁻¹ | Predicted systemic clearance ([3]; Mouse, from liver microsomes): 7.05 mL/min/kg body weight
SMILES: Cc1cc(C)c(-c2ccc(NC(=O)[C@H](Cc3ccc(C(=O)NCCS(=O)(=O)O)cc3)c3ccc(-c4ccc(C(C)(C)C)cc4)cc3)cc2)c(C)c1 [IIIa]
absorption after oral administration ([1]; human subjects, listed as Formula IIIa): well absorbed; also recorded: well-absorbed
